Measured values: patent publication US12534742B2, “Compound for regulating gene editing efficiency and application thereof” (Shanghai Institute of Organic Chemistry, Chinese Academy of …, priority 2018, dated 2026)
Values joined by “and” are separate entries in the source; they are usually repeats but may differ in a detail not shown here. Equal entries are not always repeated.

Assays:
base editing system = experiment: Regulation of base editing in HEK293T cells, deep sequencing; assay type: cell-based
SpyCas9 [1] = target: T1, SpyCas9 (Streptococcus pyogenes serotype M1, UniProt Q99ZW2); experiment: Specificity of SpyCas9-based gene editing (targeted/off-target editing), T7E1 test; assay type: cell-based; conditions: HEK293 cells
T1 construct: expressed in transfected cells; host or cells: HEK293
T1 sequence (Q99ZW2 whole entry): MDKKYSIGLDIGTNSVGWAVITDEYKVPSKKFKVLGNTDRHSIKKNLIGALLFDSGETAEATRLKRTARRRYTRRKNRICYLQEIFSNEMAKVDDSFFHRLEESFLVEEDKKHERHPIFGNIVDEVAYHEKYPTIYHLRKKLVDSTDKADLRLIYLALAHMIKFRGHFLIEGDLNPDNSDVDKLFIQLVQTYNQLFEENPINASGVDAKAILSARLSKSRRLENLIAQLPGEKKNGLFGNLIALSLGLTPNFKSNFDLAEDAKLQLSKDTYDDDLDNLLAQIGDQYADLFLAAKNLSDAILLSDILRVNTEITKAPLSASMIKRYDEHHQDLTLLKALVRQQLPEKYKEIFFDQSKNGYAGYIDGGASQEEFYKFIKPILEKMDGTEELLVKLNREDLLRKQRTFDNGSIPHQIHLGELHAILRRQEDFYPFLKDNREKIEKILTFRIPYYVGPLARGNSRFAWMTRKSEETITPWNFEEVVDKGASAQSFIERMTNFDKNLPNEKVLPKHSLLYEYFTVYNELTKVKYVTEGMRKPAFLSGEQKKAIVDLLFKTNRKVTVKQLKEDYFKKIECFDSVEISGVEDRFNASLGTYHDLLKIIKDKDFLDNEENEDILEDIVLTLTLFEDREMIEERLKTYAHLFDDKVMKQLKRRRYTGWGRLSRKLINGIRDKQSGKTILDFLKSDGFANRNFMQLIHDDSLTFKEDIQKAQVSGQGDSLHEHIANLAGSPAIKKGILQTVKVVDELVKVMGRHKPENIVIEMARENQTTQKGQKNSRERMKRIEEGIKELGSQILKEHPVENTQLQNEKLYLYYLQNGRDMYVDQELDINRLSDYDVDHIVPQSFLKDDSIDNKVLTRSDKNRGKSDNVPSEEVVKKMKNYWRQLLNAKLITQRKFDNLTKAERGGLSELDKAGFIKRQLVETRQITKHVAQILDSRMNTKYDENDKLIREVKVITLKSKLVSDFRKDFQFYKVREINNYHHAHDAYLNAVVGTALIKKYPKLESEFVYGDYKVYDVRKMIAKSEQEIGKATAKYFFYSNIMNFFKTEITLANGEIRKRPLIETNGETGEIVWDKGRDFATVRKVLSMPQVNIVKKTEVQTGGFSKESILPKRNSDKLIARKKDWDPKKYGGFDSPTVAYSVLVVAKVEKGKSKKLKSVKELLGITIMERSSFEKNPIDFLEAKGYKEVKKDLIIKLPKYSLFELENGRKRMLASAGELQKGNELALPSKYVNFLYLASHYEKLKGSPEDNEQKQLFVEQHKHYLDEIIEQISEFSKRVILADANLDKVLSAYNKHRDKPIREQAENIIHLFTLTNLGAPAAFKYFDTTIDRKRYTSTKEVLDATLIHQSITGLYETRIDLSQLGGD
Description: (§1) HEK293 cells (10^5 cells/well) were seeded on a 24-well plate. 24 hours after inoculation, cells were transfected with 200 ng AAVS1-AS2 and 200 ng pST-Cas9 plasmid or 200 ng EMX1 and 200 ng pST-Cas9 plasmid in Opti-MEM medium. 6 hours after transfection, DMEM supplemented with 10% FBS and 10 μM drug (Compound 49) was used to replace Opti-MEM. The positive control for Cas9 activity was 200 ng AAVS1-AS2 and 200 ng pST-Cas9 plasmid or 200 ng EMX1 and 200 ng pST-Cas9 plasmid without drug. After the gene editing was completed, the cell genomic DNA was extracted, and the gene editing efficiency was tested by the T7E1 method (see Guschin, D. Y. et al. Methods Mol. Biol. 649, 247-256 (2010))).
SpyCas9 was lipid transfected into HEK293 cells or nuclear transfected into K562 cells to determine the effect of compound 49 on the specificity of SpyCas9 in multiple cell lines on different genes. The inhibitor was added to the culture 6 hours after transfection. The detection method is the same as in Example 2.

SpyCas9 [2] = target: T1, SpyCas9; experiment: Inhibition of plasmid-expressed SpyCas9 editing of endogenous genes in HEK293 cells, T7E1 test; assay type: cell-based; conditions: 10 μM compound
Description: as §1
The method of this example was the same as in Example 2.

[3] = target: T2, Staphylococcus aureus Cas9 (SaCas9) (Staphylococcus aureus, UniProt J7RUA5); experiment: Inhibition of plasmid-expressed SaCas9 gene editing in cell culture, T7E1 test; assay type: cell-based; conditions: plasmid containing SaCas9; group without drug 14%
T2 construct: expressed in transfected cells; host or cells: HEK293 (method similar to 2.1)
T2 sequence (J7RUA5 whole entry): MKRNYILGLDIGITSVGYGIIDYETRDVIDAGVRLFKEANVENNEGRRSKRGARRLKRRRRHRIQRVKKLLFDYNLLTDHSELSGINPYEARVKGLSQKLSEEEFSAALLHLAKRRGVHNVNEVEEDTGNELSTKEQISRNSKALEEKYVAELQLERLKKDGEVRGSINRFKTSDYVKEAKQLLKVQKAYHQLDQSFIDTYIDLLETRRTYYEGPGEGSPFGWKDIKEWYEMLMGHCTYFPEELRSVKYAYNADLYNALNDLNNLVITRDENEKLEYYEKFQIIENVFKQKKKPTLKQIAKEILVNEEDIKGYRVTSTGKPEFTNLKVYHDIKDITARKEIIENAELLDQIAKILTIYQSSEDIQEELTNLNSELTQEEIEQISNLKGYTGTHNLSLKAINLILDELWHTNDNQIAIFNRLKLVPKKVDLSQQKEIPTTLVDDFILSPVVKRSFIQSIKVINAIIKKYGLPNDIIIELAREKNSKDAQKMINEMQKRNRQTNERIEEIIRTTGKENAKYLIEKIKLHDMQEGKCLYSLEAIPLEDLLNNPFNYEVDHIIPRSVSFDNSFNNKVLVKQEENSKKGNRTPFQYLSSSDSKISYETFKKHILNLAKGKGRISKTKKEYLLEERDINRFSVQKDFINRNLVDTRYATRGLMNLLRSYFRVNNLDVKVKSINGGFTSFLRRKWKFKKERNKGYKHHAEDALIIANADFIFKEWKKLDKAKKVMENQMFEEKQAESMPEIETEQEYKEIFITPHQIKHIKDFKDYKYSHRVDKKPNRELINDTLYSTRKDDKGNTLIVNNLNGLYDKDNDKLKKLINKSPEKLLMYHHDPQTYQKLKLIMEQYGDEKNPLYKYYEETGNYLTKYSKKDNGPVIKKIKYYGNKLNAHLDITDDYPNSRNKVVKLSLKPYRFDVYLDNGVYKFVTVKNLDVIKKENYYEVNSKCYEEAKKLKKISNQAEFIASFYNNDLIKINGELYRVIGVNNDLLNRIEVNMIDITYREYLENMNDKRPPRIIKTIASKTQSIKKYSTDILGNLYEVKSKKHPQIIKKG
Description: as §1
The method of this example was similar to 2.1, except that pST-Cas9 was replaced with a plasmid containing SaCas9. The detection method was the same as in Example 2.

[4] = target: CRISPR/Cas9 from Streptococcus pyogenes (SpyCas9) (Streptococcus pyogenes serotype M1, UniProt Q99ZW2); experiment: cell-based;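 also: Cell-based reporter with a SpyCas9 target site placed in EGFP, where NHEJ repair of the cut restores the reading frame, read-out is the share of EGFP-positive cells, lowered by inhibitors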
CRISPR/Cas9 from Streptococcus pyogenes (SpyCas9), sequence (Q99ZW2 whole entry): as the sequence (Q99ZW2 whole entry) above
Description: The CRISPR/Cas9 recognition site was inserted into the EGFP coding sequence so that the downstream sequence of the CRISPR/Cas9 recognition site was inside the box. The EGFP sequence was cleaved by Cas9 to produce double-strand breaks (DSBs), which would repair one of the two DNA repair mechanisms in the cell: non-homologous end joining (NHEJ) or homologous directed repair (HDR). The insertion or deletion introduced by NHEJ would restore the open reading frame of EGFP, thus activating EGFP fluorescence (FIG. 1).

[5] = humans; cited from earlier work

For `O=C(/C=C\n1cnc(-c2cc(C(F)(F)F)cc(C(F)(F)F)c2)n1)NNc1cnccn1` [Compound 49], which “decrease rate of C→T conversion frequency” value (base editing system; sg47, C on 5th site, 500 nM compound) is on record?
Its value is 50%.

What about the C→T conversion frequency (base editing system; sg47, C on 5th site, 500 nM compound, 18% without compound) of the same molecule?
Its C→T conversion frequency is 9%.

What about the indel frequency (base editing system; sg48, 500 nM compound) of the same molecule?
The indel frequency was “reduced overall”.

And the “C→T conversion inhibition efficiency” value (base editing system; sgMSSK1-5, C on 5th site in the window, 500 nM compound)?
Its value is 30%.

And the “C→T conversion inhibition efficiency” value (base editing system; sgMSSK1-5, C on 11th site out-of-window, 500 nM compound)?
Its value is 50%.

And the “ratio of the number of scheduled gene editing at specific sites to the number of scheduled gene editing at non-specific sites” value (SpyCas9 [1]; after compound added, 2.4 when no compound was added)?
Its value is 7.

And the “raise of the specific/non-specific site editing ratio” value (SpyCas9 [1]; with compound versus no compound)?
Its value is 2.9 fold.

And the gene modification rate (SpyCas9 [2]; HEK293 cells transfected with AAVS1-AS2 and pST-Cas9 plasmids, no-drug group 22.4% and 35.1%)?
The gene modification rate was less than 1%.

What about the gene modification rate (SpyCas9 [2]; HEK293 cells transfected with EMX1 and pST-Cas9 plasmids, no-drug group 26.5% and 27.9%) of the same molecule?
The gene modification rate was 5.6% and 3.8%.

What about the gene modification rate [3] of the same molecule?
The gene modification rate was less than 0.5%.

And the IC50 [4]?
Its IC50 is less than 1000 nM.

And the “safety in clinical testing” value [5]?
The value was “safe for humans”.
